The values below are quoted from earlier work in US11590077B2, “Fulvestrant formulations and methods of their use” (EAGLE PHARMACEUTICALS, INC., priority 2017, dated 2023).

The conditions of the data set: background statement.

In the case of `C[C@]12CC[C@@H]3c4ccc(O)cc4C[C@@H](CCCCCCCCC[S+]([O-])CCCC(F)(F)C(F)(F)F)[C@H]3[C@@H]1CC[C@@H]2O` (stereo partly shown) [Fulvestrant, 7-(9-(4,4,5,5,5-pentafluoropentylsulfinyl)nonyl) estra-1,3,5(10)-triene-3,17-diol], the aqueous solubility entry is reported as “extremely low”.
